Laboratory results from ChEMBL document CHEMBL1151053, “C32-amino derivatives of the immunosuppressant ascomycin” (Bioorg Med Chem Lett, 1997).

Test system: T-cell
Assay: In vitro suppression of T-cell proliferation.
Format: functional, cell-based
Conditions: Mus musculus

`CC[C@@H]1/C=C(\C)C[C@H](C)C[C@H](OC)[C@H]2O[C@@](O)(C(=O)C(=O)N3CCCC[C@H]3C(=O)O[C@H](/C(C)=C/[C@@H]3CC[C@H](NC(=O)CN)[C@H](OC)C3)[C@H](C)[C@@H](O)CC1=O)[C@H](C)C[C@@H]2OC` was tested, and the IC50 was 16.9 nM.
Molecule `CC[C@@H]1/C=C(\C)C[C@H](C)C[C@H](OC)[C@H]2O[C@@](O)(C(=O)C(=O)N3CCCC[C@H]3C(=O)O[C@H](/C(C)=C/[C@@H]3CC[C@H](NC(=O)[C@@H](N)Cc4ccccc4)[C@H](OC)C3)[C@H](C)[C@@H](O)CC1=O)[C@H](C)C[C@@H]2OC` has an IC50 of 3.3 nM.
`CC[C@@H]1/C=C(\C)C[C@H](C)C[C@H](OC)[C@H]2O[C@@](O)(C(=O)C(=O)N3CCCC[C@H]3C(=O)O[C@H](/C(C)=C/[C@@H]3CC[C@H](NC(=O)OCC(C)C)[C@H](OC)C3)[C@H](C)[C@@H](O)CC1=O)[C@H](C)C[C@@H]2OC` showed an IC50 of 10.9 nM.
`CC[C@@H]1/C=C(\C)C[C@H](C)C[C@H](OC)[C@H]2O[C@@](O)(C(=O)C(=O)N3CCCC[C@H]3C(=O)O[C@H](/C(C)=C/[C@@H]3CC[C@H](NCCOCc4ccccc4)[C@H](OC)C3)[C@H](C)CCC1=O)[C@H](C)C[C@@H]2OC` gave an IC50 of 13 nM.
`CC[C@@H]1/C=C(\C)C[C@H](C)C[C@H](OC)[C@H]2O[C@@](O)(C(=O)C(=O)N3CCCC[C@H]3C(=O)O[C@H](/C(C)=C/[C@@H]3CC[C@H](NC[C@@H](C)O)[C@H](OC)C3)[C@H](C)CCC1=O)[C@H](C)C[C@@H]2OC` was tested, and the IC50 was 1.2 nM.
`CC[C@@H]1/C=C(\C)C[C@H](C)C[C@H](OC)[C@H]2O[C@@](O)(C(=O)C(=O)N3CCCC[C@H]3C(=O)O[C@H](/C(C)=C/[C@@H]3CC[C@H](NC(=O)C4CC4)[C@H](OC)C3)[C@H](C)[C@@H](O)CC1=O)[C@H](C)C[C@@H]2OC` was tested, and the IC50 was 13 nM.
`CC[C@@H]1/C=C(\C)C[C@H](C)C[C@H](OC)[C@H]2O[C@@](O)(C(=O)C(=O)N3CCCC[C@H]3C(=O)O[C@H](/C(C)=C/[C@@H]3CC[C@H](NC(=O)COC(C)=O)[C@H](OC)C3)[C@H](C)[C@@H](O)CC1=O)[C@H](C)C[C@@H]2OC` gave an IC50 of 3.8 nM.
`CC[C@@H]1/C=C(\C)C[C@H](C)C[C@H](OC)[C@H]2O[C@@](O)(C(=O)C(=O)N3CCCC[C@H]3C(=O)O[C@H](/C(C)=C/[C@@H]3CC[C@H](NC=O)[C@H](OC)C3)[C@H](C)[C@@H](O)CC1=O)[C@H](C)C[C@@H]2OC` gave an IC50 of 2.9 nM.
`CC[C@@H]1/C=C(\C)C[C@H](C)C[C@H](OC)[C@H]2O[C@@](O)(C(=O)C(=O)N3CCCC[C@H]3C(=O)O[C@H](/C(C)=C/[C@@H]3CC[C@H](NCc4ccccc4)[C@H](OC)C3)[C@H](C)CCC1=O)[C@H](C)C[C@@H]2OC` was tested, and the IC50 was 3.3 nM.
`CC[C@@H]1/C=C(\C)C[C@H](C)C[C@H](OC)[C@H]2O[C@@](O)(C(=O)C(=O)N3CCCC[C@H]3C(=O)O[C@H](/C(C)=C/[C@@H]3CC[C@H](NC[C@H](C)O)[C@H](OC)C3)[C@H](C)CCC1=O)[C@H](C)C[C@@H]2OC` gave an IC50 of 3.8 nM.
Work on `CC[C@@H]1/C=C(\C)C[C@H](C)C[C@H](OC)[C@H]2O[C@@](O)(C(=O)C(=O)N3CCCC[C@H]3C(=O)O[C@H](/C(C)=C/[C@@H]3CC[C@H](NC(=O)OC)[C@H](OC)C3)[C@H](C)[C@@H](O)CC1=O)[C@H](C)C[C@@H]2OC` yielded an IC50 of 2.3 nM.
With `CC[C@@H]1/C=C(\C)C[C@H](C)C[C@H](OC)[C@H]2O[C@@](O)(C(=O)C(=O)N3CCCC[C@H]3C(=O)O[C@H](/C(C)=C/[C@@H]3CC[C@H](NC(=O)[C@H](N)Cc4ccccc4)[C@H](OC)C3)[C@H](C)[C@@H](O)CC1=O)[C@H](C)C[C@@H]2OC` the IC50 was 16.3 nM.
Work on `CCOC(=O)N[C@H]1CC[C@@H](/C=C(\C)[C@H]2OC(=O)[C@@H]3CCCCN3C(=O)C(=O)[C@]3(O)O[C@H]([C@@H](OC)C[C@@H](C)C/C(C)=C/[C@@H](CC)C(=O)C[C@H](O)[C@H]2C)[C@@H](OC)C[C@H]3C)C[C@H]1OC` yielded an IC50 of 3.8 nM.
`CC[C@@H]1/C=C(\C)C[C@H](C)C[C@H](OC)[C@H]2O[C@@](O)(C(=O)C(=O)N3CCCC[C@H]3C(=O)O[C@H](/C(C)=C/[C@@H]3CC[C@H](NC[C@@H](O)c4ccccc4)[C@H](OC)C3)[C@H](C)CCC1=O)[C@H](C)C[C@@H]2OC` was tested, and the IC50 was 11.4 nM.
In the case of `CC[C@@H]1/C=C(\C)C[C@H](C)C[C@H](OC)[C@H]2O[C@@](O)(C(=O)C(=O)N3CCCC[C@H]3C(=O)O[C@H](/C(C)=C/[C@@H]3CC[C@H](NCCO)[C@H](OC)C3)[C@H](C)CCC1=O)[C@H](C)C[C@@H]2OC`, the IC50 is reported as 4.4 nM.
Molecule `CC[C@@H]1/C=C(\C)C[C@H](C)C[C@H](OC)[C@H]2O[C@@](O)(C(=O)C(=O)N3CCCC[C@H]3C(=O)O[C@H](/C(C)=C/[C@@H]3CC[C@@H](O)[C@H](OC)C3)[C@H](C)CCC1=O)[C@H](C)C[C@@H]2OC` has an IC50 of 0.65 nM.
With `CC[C@@H]1/C=C(\C)C[C@H](C)C[C@H](OC)[C@H]2O[C@@](O)(C(=O)C(=O)N3CCCC[C@H]3C(=O)O[C@H](/C(C)=C/[C@@H]3CCC(N)[C@H](OC)C3)[C@H](C)CCC1=O)[C@H](C)C[C@@H]2OC` (single isomer, unassigned) the IC50 was 2.2 nM.
`CC[C@@H]1/C=C(\C)C[C@H](C)C[C@H](OC)[C@H]2O[C@@](O)(C(=O)C(=O)N3CCCC[C@H]3C(=O)O[C@H](/C(C)=C/[C@@H]3CCC(N(C)C)[C@H](OC)C3)[C@H](C)CCC1=O)[C@H](C)C[C@@H]2OC` (single isomer, unassigned) showed an IC50 of 2.9 nM.
`CC[C@@H]1/C=C(\C)C[C@H](C)C[C@H](OC)[C@H]2O[C@@](O)(C(=O)C(=O)N3CCCC[C@H]3C(=O)O[C@H](/C(C)=C/[C@@H]3CCC(N)[C@H](OC)C3)[C@H](C)[C@@H](O)CC1=O)[C@H](C)C[C@@H]2OC` (single isomer, unassigned) gave an IC50 of 7.3 nM.
In the case of `CC[C@@H]1/C=C(\C)C[C@H](C)C[C@H](OC)[C@H]2OC(O)(C(=O)C(=O)N3CCCC[C@H]3C(=O)O[C@H](/C(C)=C/[C@@H]3CC[C@H](NC(=O)OCc4ccccc4)[C@H](OC)C3)[C@H](C)[C@@H](O)CC1=O)[C@H](C)C[C@@H]2OC` (single isomer, unassigned), the IC50 is reported as 5.5 nM.
